{
  "source": "patent US20100094053A1",
  "about": "“USE OF PERSONAL CARE COMPOSITION” (CONOPCO, INC., D/B/A UNILEVER, priority 2008, published 2010)",
  "key": {"[1]": {"biological_target": "T1, human recombinant CB2 receptor (Homo sapiens, UniProt P34972)", "T1 construct": "expressed in transfected cells; host or cells: HEK-293", "T1 sequence (P34972 whole entry)": "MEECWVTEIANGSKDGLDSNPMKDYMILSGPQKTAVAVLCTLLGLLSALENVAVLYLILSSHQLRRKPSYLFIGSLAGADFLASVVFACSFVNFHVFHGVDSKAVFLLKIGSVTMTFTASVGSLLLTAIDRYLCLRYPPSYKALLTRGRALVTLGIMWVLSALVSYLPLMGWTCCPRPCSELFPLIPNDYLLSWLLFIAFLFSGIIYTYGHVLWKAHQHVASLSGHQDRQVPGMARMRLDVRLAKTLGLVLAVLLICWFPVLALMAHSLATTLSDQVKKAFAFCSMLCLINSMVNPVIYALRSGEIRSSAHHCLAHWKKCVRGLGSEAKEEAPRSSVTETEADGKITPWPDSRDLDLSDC", "test": "CB2 receptor inhibition binding assay ([3H]-CP-55,940 displacement)", "conditions": "0.084 nM [3H]-CP-55,940, 90 minutes at 30° C", "protocol": "(§1) Ki values were calculated by applying the Cheng-Prusoff equation to the IC50 values (obtained by GraphPad) for the displacement of the bound radioligand by increasing concentrations of the test compound."}, "[2]": {"test_system": "histamine induced scalp itch", "test": "Clinical assessment of histamine induced scalp itch (histamine iontophoresis, half head study)", "assay_type": "in vivo, human", "conditions": "1.5% v/v CMEA in ethanol, 30 μl patch on scalp for 24 h, then histamine iontophoresis", "protocol": "Cocomonoethanolamide (CMEA) efficacy against itch was assessed using histamine iontophoresis. CMEA (1.5% v/v) was made up in 100% ethanol. The same concentration of ethanol was used as the vehicular control. A total of 31 subjects completed the randomised, double blind, half head clinical study. Volunteers were initially familiarised with the iontophoresis equipment and test protocol prior to study commencement. Following this phase, product application was commenced. Two sites were selected on each side of the head approximately halfway between the top of the ear and the apex of the head. An area of 2 cm^2 was carefully trimmed close to the scalp. Both the CMEA test solution and the ethanol control (30 μl each) were applied to a filter paper and placed in a 12 mm Finn chamber, which was attached the scalp with adhesive tape. Volunteers kept the patch in place for a period of 24 h. The chambers were then removed from the scalp and each application site received a histamine challenge via iontophoresis. Subjects scored perceived itch throughout the procedure by sliding an indicator up or down a Visual Analogue Score (VAS; calibrated in gradient fashion from 0 (none) to 100% (extremely intense)) to indicate itch intensity in real time. Data are expressed as the mean area under the curve+/−S.E. (standard error of the mean)."}, "[3]": {"biological_target": "T2, human recombinant CB1 receptor (Homo sapiens, UniProt P21554)", "T2 construct": "expressed in transfected cells; host or cells: HEK-293", "T2 sequence (P21554 whole entry)": "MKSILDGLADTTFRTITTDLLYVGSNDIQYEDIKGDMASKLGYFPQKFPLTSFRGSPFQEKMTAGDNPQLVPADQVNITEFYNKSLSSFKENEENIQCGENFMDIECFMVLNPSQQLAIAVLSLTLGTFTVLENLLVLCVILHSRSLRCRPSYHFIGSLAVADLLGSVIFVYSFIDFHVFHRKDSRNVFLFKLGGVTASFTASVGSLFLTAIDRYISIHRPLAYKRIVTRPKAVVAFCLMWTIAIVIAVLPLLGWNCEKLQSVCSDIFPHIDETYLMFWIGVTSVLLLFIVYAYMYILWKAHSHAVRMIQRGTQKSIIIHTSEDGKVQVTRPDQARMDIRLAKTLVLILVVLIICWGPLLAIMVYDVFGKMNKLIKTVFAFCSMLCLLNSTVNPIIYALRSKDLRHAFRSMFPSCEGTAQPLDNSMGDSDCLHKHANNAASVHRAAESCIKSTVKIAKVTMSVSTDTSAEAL", "test": "CB1 receptor inhibition binding assay ([3H]-CP-55,940 displacement)", "protocol": "as §1"}},
  "data": [
    {"substance": "Cocomonoethanolamide [CMEA]", "values": [
      {"measurement": "IC50 for displacement of [3H]-CP-55,940 at CB2 receptor", "setting": "[1]; HEK-293 cells transfected with human recombinant CB2 receptor", "result": 8.19, "unit": "µg/mL"},
      {"measurement": "Ki at CB2 receptor", "setting": "[1]; calculated by Cheng-Prusoff equation from IC50", "result": 6.44, "unit": "µg/mL"},
      {"measurement": "Visual Analogue Score (area under the curve; mean +/− S.E.M.)", "setting": "[2]; 31 subjects", "result": "74942 (9625)"},
      {"measurement": "reduction of perceived scalp itch", "setting": "[2]; versus ethanol control, P<0.02", "result": 16.6, "unit": "%"},
      {"measurement": "IC50 for displacement of [3H]-CP-55,940 at CB1 receptor", "setting": "[3]; HEK-293 cells transfected with human recombinant CB1 receptor, 0.14 nM [3H]-CP-55,940, 90 minutes at 30° C", "result": 5.08, "unit": "µg/mL"},
      {"measurement": "Ki at CB1 receptor", "setting": "[3]; calculated by Cheng-Prusoff equation from IC50, 0.14 nM [3H]-CP-55,940, 90 minutes at 30° C", "result": 2.85, "unit": "µg/mL"},
      {"measurement": "binding affinity, CB1R compared with CB2R", "setting": "[3]; comparison of CB1 and CB2 binding data", "result": "higher for the CB1R than for CB2R"}
    ]}
  ]
}
